Series [1] has as its system HT-29 (CRC). Description: MTT cell viability assay, HT-29. Particulars: Homo sapiens; for viability at 5 µM / viability at 25 µM / viability at 50 µM: read-out: cell viability. As for the experimental part: (§1) Cell Culture Conditions. The cell lines were obtained from the American Type Culture Collection (ATCC). PANC-1 and Caco-2 cell lines were maintained in DMEM medium (Gibco); HT-29, HCT-116 and RKO cells were maintained in McCoy's 5A medium (Gibco); and DU-145 and H1299 cells were maintained in RPMI 1640 medium (Gibco), supplemented with 10% fetal bovine serum (FBS; Gibco) and 1% antibiotics (10.00 units/mL penicillin and 10.00 mg/mL streptomycin; Gibco). Cells were preserved in tissue culture flasks at 37° C. and 5% CO2. Culture medium was replaced every three days.
(§2) Cell Viability Assay. The effect of each compound on cell viability was tested using the MTT assay (81). Briefly, 9000 cells/well were grown in 96-well plates for 12 h. Then these cells were incubated with either DMSO (control) or nine different concentration between 0.01-50 μM of the test compounds for 24, 48, and 72 h. Three hours before the termination point, 20 μL of MTT were added to measure cellular viability. The resultant formazan crystals were dissolved in 50 μL of DMSO, and absorbance was measured at 570 nm and 630 nm wavelengths. IC50, GI50, TGI and LC50 values were calculated using OriginPro 8.5.1.
(§3) Evaluation of the antiproliferative activities of the novel molecules. […] These four cell lines were treated with each compound at three concentrations (5, 25 and 50 μM) for 48 h.
(Formazan colour is commonly taken as a measure of viable cells.)

The subject of series [2] is CACO-2 CRC cells. Description: cells. Conditions: for IC50: Homo sapiens. The procedure:
as §1, §2

Series [3] relates to RKO CRC cells. Description: cells. Conditions: Homo sapiens. The procedure: as §1, §2
In series [4] the test system is HCT-116 CRC cells. As to the kind of experiment: MTT cell viability assay, HCT-116. In kind it is cell-based, human. Conditions: Homo sapiens. The procedure:
as §1, §2

Series [5] has as its system PANC-1 (pancreatic carcinoma). Description: MTT cell viability assay, Panc-1. Conditions: Homo sapiens, PANC-1, 48 h, read-out: cell viability. As for the experimental part: as §1, §2, §3
Series [6] relates to DU-145 (prostate carcinoma). As to the kind of experiment: MTT cell viability assay, DU-145. Conditions: Homo sapiens, DU-145, 48 h, read-out: cell viability. The procedure: as §1, §2, §3
Series [7] concerns H1299 (lung carcinoma). Description: MTT cell viability assay, H1299. Conditions: Homo sapiens, NCI-H1299, 48 h, read-out: cell viability. As for the experimental part: as §1, §2, §3

Structures are written as SMILES. Where two headings read alike, the source gives them in different places.

With `CC[Se]C(=O)c1ccccc1OC(C)=O` [Compound 1b, 2-((ethylselanyl)carbonyl)phenyl acetate], the IC50 (as a rule, the concentration at which inhibition is half-maximal) in series [1] (HT-29, 24 h) is above 50 µM; in series [1] (HT-29, 48 h), 4.2 ± 0.4 µM; in series [1] (HT-29, 72 h), 4.2 ± 0.9 µM; in series [2] (Caco-2, 24 h) it was above 50 µM; in series [2] (Caco-2, 48 h) it was above 50 µM; in series [2] (Caco-2, 72 h), above 50 µM. The IC50 in series [3] (24 h) was above 50 µM; in series [3] (48 h), above 50 µM; in series [3] (72 h) it was above 50 µM; in series [4] (HCT-116, 24 h, read-out: IC50), above 50 µM; in series [4] (HCT-116, 48 h, read-out: IC50), 13.2 ± 2.6 µM; in series [4] (HCT-116, 72 h, read-out: IC50) it was 6.8 ± 4.2 µM. Further, in series [2], the “effect on CACO-2 viability” value is “no effect”.
As for `CC[Se]C(=O)CC1=C(C)/C(=C/c2ccc([S+](C)[O-])cc2)c2ccc(F)cc21` (stereo not drawn) [Compound 6b, Se-ethyl (Z)-2-(5-fluoro-2-methyl-1-(4-(methylsulfinyl)benzylidene)-1H-inden-3-yl)ethaneselenoate], the IC50 in series [1] (HT-29, 24 h) was 10.9 ± 1.4 µM; in series [1] (HT-29, 48 h), 4.9 ± 0.2 µM; in series [1] (HT-29, 72 h), 5 ± 0.1 µM; in series [2] (Caco-2, 24 h) it was above 50 µM; in series [2] (Caco-2, 48 h), above 50 µM; in series [2] (Caco-2, 72 h) it was above 50 µM. The IC50 in series [3] (24 h) is above 50 µM; in series [3] (48 h), 41.8 ± 13.8 µM; in series [3] (72 h), 12.4 ± 0.5 µM; in series [4] (HCT-116, 24 h, read-out: IC50), above 50 µM; in series [4] (HCT-116, 48 h, read-out: IC50), 6.2 ± 0.9 µM; in series [4] (HCT-116, 72 h, read-out: IC50) it was 7.2 ± 1 µM. Moreover, in series [2], the “effect on CACO-2 viability” value is recorded as “no effect”.
For the molecule `CC[Se]C(=O)Cc1c(C)n(C(=O)c2ccc(Cl)cc2)c2ccc(OC)cc12` [Compound 5b, Se-ethyl 2-(1-(4-chlorobenzoyl)-5-methoxy-2-methyl-1H-indol-3-yl)ethane-selenoate], the IC50 was above 50 µM in series [1] (HT-29, 24 h); 4.9 ± 0.3 µM in series [1] (HT-29, 48 h); 4.9 ± 0.1 µM in series [1] (HT-29, 72 h); above 50 µM in series [2] (Caco-2, 24 h); above 50 µM in series [2] (Caco-2, 48 h); above 50 µM in series [2] (Caco-2, 72 h). Moreover, the IC50 in series [3] (24 h) is above 50 µM; in series [3] (48 h), 30.8 ± 3.5 µM; in series [3] (72 h) it was 33.3 ± 16.9 µM; in series [4] (HCT-116, 24 h, read-out: IC50), above 50 µM; in series [4] (HCT-116, 48 h, read-out: IC50), 6.3 ± 1.6 µM; in series [4] (HCT-116, 72 h, read-out: IC50), 8.2 ± 1.7 µM. Also, in series [2], the “effect on CACO-2 viability” value is “no effect”.
In the case of `COc1ccc2cc([C@H](C)C(=O)[Se]C)ccc2c1` [Compound 3a, Se-methyl (S)-2-(6-methoxynaphthalen-2-yl)propaneselenoate], the viability (in general, a per cent measure of how many cells are alive, often set against a control) at 5 µM in series [1] (HT-29, 48 h) was 52.2 ± 30.9%; in series [5], 46.7 ± 9.7%; in series [6], 56.2 ± 18.4%; in series [7], 48.3 ± 5.4%. The viability at 25 µM in series [1] (HT-29, 48 h) turned out to be 41.8 ± 26.4%; in series [5], 34.4 ± 6.3%; in series [6], 35 ± 16.1%; in series [7], 42.4 ± 2.7%. For the same molecule, the viability at 50 µM came to 46.4 ± 24.7% in series [1] (HT-29, 48 h); 30.5 ± 6% in series [5]; 31.4 ± 23.6% in series [6]; 34.3 ± 1.3% in series [7].
`C[Se]C(=O)c1cc(-c2ccc(F)cc2F)ccc1O` [Compound 2a, Se-methyl 2′,4′-difluoro-4-hydroxy-[1,1′-biphenyl]-3-carboselenoate]: the viability at 5 µM amounted to 46.6 ± 11.9% in series [1] (HT-29, 48 h); 53.5 ± 9.7% in series [5]; 53.9 ± 14.1% in series [6]; 96.8 ± 19.8% in series [7]. Also, the viability at 25 µM is 23.5 ± 7.2% in series [1] (HT-29, 48 h); 38.5 ± 8.1% in series [5]; 40.7 ± 8.3% in series [6]; 80 ± 10.7% in series [7]. In addition, the viability at 50 µM in series [1] (HT-29, 48 h) was 28.4 ± 2.7%; in series [5] it was 39.1 ± 11.1%; in series [6], 39.5 ± 2.7%; in series [7], 79.9 ± 9%.
As to `CC(=O)Oc1ccccc1C(=O)[Se]Cc1ccccc1` [Compound 1c, 2-((benzylselanyl)carbonyl)phenyl acetate], the IC50 is above 50 µM in series [1] (HT-29, 24 h); 4.8 ± 0.2 µM in series [1] (HT-29, 48 h); 4.8 ± 0.1 µM in series [1] (HT-29, 72 h); above 50 µM in series [2] (Caco-2, 24 h); above 50 µM in series [2] (Caco-2, 48 h); 11.8 ± 5.9 µM in series [2] (Caco-2, 72 h). Moreover, the IC50 in series [3] (24 h) was above 50 µM; in series [3] (48 h), 10.4 ± 0.1 µM; in series [3] (72 h), 5 ± 0.1 µM; in series [4] (HCT-116, 24 h), above 50 µM; in series [4] (HCT-116, 48 h), 8 ± 2.1 µM; in series [4] (HCT-116, 72 h), 8.2 ± 2.2 µM.
Turning to `CC1=C(CC(=O)[Se]Cc2ccccc2)c2cc(F)ccc2/C1=C\c1ccc([S+](C)[O-])cc1` (stereo not drawn) [Compound 6c, Se-benzyl (Z)-2-(5-fluoro-2-methyl-1-(4-(methylsulfinyl)benzylidene)-1H-inden-3-yl)ethaneselenoate], the IC50 in series [1] (HT-29, 24 h) was above 50 µM; in series [1] (HT-29, 48 h), 5.1 ± 0.1 µM; in series [1] (HT-29, 72 h), 5.2 ± 0.2 µM; in series [2] (Caco-2, 24 h), above 50 µM; in series [2] (Caco-2, 48 h), 11.4 ± 1.6 µM; in series [2] (Caco-2, 72 h) it was 14.2 ± 3.9 µM. The IC50 in series [3] (24 h) was above 50 µM; in series [3] (48 h), above 50 µM; in series [3] (72 h) it was 35.8 ± 5.9 µM; in series [4] (HCT-116, 24 h), above 50 µM; in series [4] (HCT-116, 48 h) it was 7.8 ± 1.8 µM; in series [4] (HCT-116, 72 h) it was 7 ± 0.8 µM.
Regarding `Cc1cccc(Nc2ccccc2C(=O)O)c1C` [Mf, mefenamic acid, reference compound], the viability at 5 µM in series [1] (HT-29, 48 h) was found to be 91.9 ± 4.9%; in series [5] it was 72.4 ± 5.6%; in series [6] it was 100%; in series [7], 71.4 ± 15.5%. The viability at 25 µM in series [1] (HT-29, 48 h) stood at 75.7 ± 4.1%; in series [5], 61.9 ± 10.9%; in series [6], 100%; in series [7], 44.9 ± 1.4%. The viability at 50 µM in series [1] (HT-29, 48 h) is 64.9 ± 4.5%; in series [5] it was 65.9 ± 5.1%; in series [6], 100%; in series [7], 39.4 ± 1.3%.
As for `COc1ccc2c(c1)c(CC(=O)[Se]Cc1ccccc1)c(C)n2C(=O)c1ccc(Cl)cc1` [Compound 5c, Se-benzyl 2-(1-(4-chlorobenzoyl)-5-methoxy-2-methyl-1H-indol-3-yl)ethane-selenoate], the IC50 in series [1] (HT-29, 24 h) is above 50 µM; in series [1] (HT-29, 48 h), 4.2 ± 0.5 µM; in series [1] (HT-29, 72 h), 4 ± 1 µM; in series [2] (Caco-2, 24 h), above 50 µM; in series [2] (Caco-2, 48 h) it was above 50 µM; in series [2] (Caco-2, 72 h) it was above 50 µM. Besides, the IC50 was above 50 µM in series [3] (24 h); 26.2 ± 4.6 µM in series [3] (48 h); 11.5 ± 0.9 µM in series [3] (72 h); above 50 µM in series [4] (HCT-116, 24 h); 14 ± 6.6 µM in series [4] (HCT-116, 48 h); 5.5 ± 1.2 µM in series [4] (HCT-116, 72 h).
Take `O=C(O)c1cc(-c2ccc(F)cc2F)ccc1O` [Dfl, diflunisal, reference compound]: the viability at 5 µM was determined as 93.2 ± 5.7% in series [1] (HT-29, 48 h); 77.9 ± 5.4% in series [5]; 71 ± 6.9% in series [6]; 85.2 ± 3.6% in series [7]. The viability at 25 µM in series [1] (HT-29, 48 h) came out at 82.7 ± 9.8%; in series [5], 75.5 ± 6.9%; in series [6] it was 71.5 ± 9.1%; in series [7] it was 94.3 ± 3.9%. Besides, the viability at 50 µM was 74.7 ± 2% in series [1] (HT-29, 48 h); 68.5 ± 9.3% in series [5]; 78.9 ± 6.4% in series [6]; 88.7 ± 7.8% in series [7].
On to `C[Se]C(=O)c1ccccc1Nc1cccc(C)c1C` [Compound 4a, Se-methyl 2-((2,3-dimethylphenyl)amino)benzoselenoate], for which the viability at 5 µM in series [1] (HT-29, 48 h) is 41.6 ± 6.4%; in series [5], 47.5 ± 5.9%; in series [6], 58 ± 14.1%; in series [7], 98.7 ± 0.4%. Further, the viability at 25 µM worked out at 16.6 ± 4.7% in series [1] (HT-29, 48 h); 26.3 ± 3.9% in series [5]; 29.7 ± 10.9% in series [6]; 99.4 ± 0.3% in series [7]. Moreover, the viability at 50 µM in series [1] (HT-29, 48 h) turned out to be 22.6 ± 0.7%; in series [5], 22.6 ± 3%; in series [6] it was 32 ± 6.5%; in series [7] it was 100%.

The values above are taken from US20230219886A1, “NOVEL SELENO-NSAID ANALOGS AND USES THEREOF” (THE PENN STATE RESEARCH FOUNDATION, priority 2020, published 2023).
